Assay results taken from patent publication US20240226058A1, “STABILIZED CANNABINOID COMPOSITIONS AND METHODS OF PREPARATION THEREOF” (priority 2020, published 2024).

Experiments:
[1] = Cannabinoid stability in cold-brewed coffee with tocopherol-containing emulsions; format: physicochemical; conditions: cold-brewed coffee base (FIG. 5)
Description: FIG. 5 is a graph showing quantified THC content when alpha-tocopherol (Vitamin E, VE) was incorporated into our emulsion alongside THC. Alpha-tocopherol (Vitamin E, VE) was incorporated into the emulsion alongside THC.
FIG. 6 is a graph showing cannabinoid stability testing on a cold-brewed coffee product (20× concentrated base and final product) using two different emulsions containing tocopherols (QNE=our in-house Q-naturale+VitE emulsion; NGAO=Nanogen's (a 3rd party emulsion provider) antioxidant formulation).

[2] = THC content in infused hop water stored at room temperature; format: physicochemical; conditions: for protection of cannabinoid API against oxidative damage: infused beverage, tocopherols emulsified with cannabis oil, ascorbic acid about 0.5-1 mM in aqueous base
[3] = Heat-accelerated (~37° C.) THC stability with aqueous-phase vitamin C and/or EDTA; format: physicochemical; conditions: for THC loss compared to control: vitamin C or EDTA individually, actual hop water base (FIG. 9)
[4] = THC loss in RO water at pH 3.6 vs. neutral pH; format: physicochemical; conditions: 20 mg THC/355 mL, citric acid to pH 3.6 (FIG. 4)
Experimental: FIG. 4 is a graph showing an experiment ruling out pH as a driving factor behind THC loss. Dosed RO water to 20 mg THC/355 mL and used citric acid to pH down to 3.6 (which is the pH of the Infused hop water products) vs. neutral pH (had to bring H2O pH up a bit using sodium carbonate). No difference was observed.

[5] = In-house comparison of oxidation rates of emulsified cannabinoids
[6] = Color and flavor stability of infused hop water at 37° C. incubation; format: physicochemical

Compound: Cc1c(C)c2c(c(C)c1O)CC[C@@](C)(CCC[C@H](C)CCC[C@H](C)CCCC(C)C)O2 [Alpha-tocopherol, alpha-tocopherol]
- THC content, emulsion formulated with vs without Vitamin E [1]: no appreciable difference

Compound: CCCCCc1cc(O)c2c(c1)OC(C)(C)c1ccc(C)cc1-2 [CBN, cannabinol]
- Maximal CBN levels observed ([2]; room temperature infused hop water samples (FIG. 2)): about 20 % of the original THC content

Compound: O=C(O)CN(CCN(CC(=O)O)CC(=O)O)CC(=O)O [EDTA, ethylenediaminetetraacetic acid]
- THC loss compared to control [3]: able to mitigate THC loss compared to control, but did not fully prevent it

Compound: CCCCCc1cc(O)c2c(c1)OC(C)(C)[C@@H]1CCC(C)=C[C@@H]21 [THC, Δ^9-tetrahydrocannabinol, reference compound]
- THC loss, pH 3.6 vs neutral pH [4]: No difference
- rate of THC loss in high dissolved oxygen (DO) samples ([3]; aerated samples, shaken with air exposure (FIG. 8)): fastest rate of THC loss
- rate of THC loss with intentional increase in DO levels ([3]; heat-accelerated, three emulsion formulations (FIG. 10)): faster rates of loss
- rate of THC loss ([2]; infused hop water beverages, room temperature, no antioxidants added, linear (FIG. 1)): roughly −0.35 % THC per day
- rate of oxidation compared to CBD [5]: drastically faster rates of oxidation

Compound: O=C1O[C@H]([C@@H](O)CO)C(O)=C1O [vitamin C, ascorbic acid]
- antioxidant efficacy between concentrations ([3]; 0.5-10 mM vitamin C, infused hop water, 4 weeks heat-accelerated (~9 months at RT) (FIG. 11)): little difference
- protection to THC ([3]; 30 days @ ~37° C., equivalent to ~10 months at room temperature): sufficient protection
- THC (cannabinoid) loss ([3]; Vitamin C 176 ppm=1 mM and/or EDTA 25 ppm in aqueous phase, hop terpene-infused base (FIG. 7)): slowed rates of cannabinoid loss
- concentration of vitamin C concluded sufficient ([3]; infused hop water products (FIG. 11)): 500 µM
- THC loss compared to control [3]: able to mitigate THC loss compared to control, but did not fully prevent it
- color and flavor alterations in the beverage product ([6]; heat-accelerated, 30 days @ ~37° C.): strongly protected against unfavorable color and flavor alterations
- formation of off-colors and flavors ([6]; infused hop water, 3 weeks at 37° C., EDTA 25 ppm, vitamin C 176 ppm): largely prevent formation of off-colors and flavors
- protection of cannabinoid API against oxidative damage [2]: ample protection
- THC loss compared to tocopherol-only preparations ([2]; room temperature, after roughly five months): negligible amounts of THC loss

Compound: Tocopherols
- protection of cannabinoid API against oxidative damage [2]: not found to suitably mitigate oxidative damage by itself
